Patent US20050075375A1 (priority 2003, published 2005)
Read-outs that look alike come from different tables or passages of the source.

System: monocistronic NK5.1 HCV replicon in Huh7 cells
Test: HCV replicon assay, monocistronic replicon cell line
Assay type: cell-based, hepatitis C virus
Details: Hepatitis C virus, read-out: Mono EC50 Median
Outline: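 EC50 derives from the HCV RNA/GAPDH RNA ratio by one-step TaqMan RT-PCR, relative to DMSO-only wells. Compounds (six half-log concentrations, 0.6% DMSO) were incubated 3 days at 37 °C with NK5.1 monocistronic replicon Huh7 cells plated a day earlier.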

[1] = Huh-7, 72 h, table T3 (compounds 471-640), monocistronic replicon in Huh7 cells, 3 days incubation, HCV RNA/GAPDH RNA by TaqMan RT-PCR
[2] = Huh-7, 72 h, Table 1, monocistronic replicon in Huh7 cells, 3 days incubation, HCV RNA/GAPDH RNA by TaqMan RT-PCR
[3] = Huh-7, monocistronic NK5.1 HCV replicon in Huh7 cells, median value

Compound	EC50 [1]	EC50 [2]	EC50 [3]
COc1ccc(O)c(-c2nc(-c3ncccc3C(F)(F)F)nn2C)c1 [Compound 632, 4-Methoxy-2-[2-methyl-5-(3-trifluoromethyl-pyridin-2-yl)-2H-[1,2,4]triazol-3-yl]-phenol]	31 µM	–	–
Clc1ccccc1-c1nc(-c2nccc3ccccc23)n[nH]1 [Compound 471]	6.1 µM	–	–
COc1ccc(O)c(-c2ccn(-c3ncccc3C)n2)c1 [Compound 93, 4-Methoxy-2-[l-(3-methyl-pyridin-2-yl)-1H-pyrazol-3-yl]-phenol]	–	9.1 µM	–
COc1cccc(-c2nc(-c3ncccc3Br)n[nH]2)c1 [Compound 500, 3-Bromo 2-[5-(3-Methoxy-phenyl)-1H-[1,2,4]triazol-3-yl]-pyridine]	> 32 µM	–	–
Oc1ccccc1-c1ncn(-c2ccccn2)n1 [Compound 629, 2-(1-Pyridin-2-yl-1H-[1,2,4]triazol-3-yl)-phenol]	16 µM	–	–
FC(F)(F)c1cccnc1-c1n[nH]c(-c2cccc(Br)c2)n1 [Compound 550, 2-[5-(3-Bromo-phenyl)-1H-[1,2,4]triazol-3-yl]-3-trifluoromethyl-pyridine]	> 19 µM	–	–
Oc1ccc(F)cc1-c1nc(-c2ccccn2)n[nH]1 [Compound 353, 4-Fluoro-2-(5-pyridin-2-yl-2H-[1,2,4]triazol-3-yl)-phenol]	–	–	7.1 µM
COc1ccc(O)c(-c2nc(-c3ccc(NC(C)=O)cn3)no2)c1 [Compound 262, N-{6-[5-(2-Hydroxy-5-methoxy-phenyl)-[1,2,4]oxadiazol-3-yl]-pyridin-3-yl}-acetamide]	–	–	19.2 µM
Cc1ccccc1-c1nnc(-c2ccccc2[N+](=O)[O-])o1 [Compound 315, 2-(2-Nitro-phenyl)-5-o-tolyl-[1,3,4]oxadiazole]	–	–	> 32 µM
Cc1cccnc1-c1noc(-c2cccc(C(C)C)c2O)n1 [Compound 300, 2-Isopropyl-6-[3-(3-methyl-pyridin-2-yl)-[1,2,4]oxadiazol-5-yl]-phenol]	–	–	1.5 µM
COc1ccc(-c2nc(-c3ncccc3Br)no2)c(O)c1 [Compound 259, 2-[3-(3-Bromo-pyridin-2-yl)-[1,2,4]oxadiazol-5-yl]-5-methoxy-phenol]	–	–	2.5 µM
Oc1ccc(Cl)cc1-c1nc(-c2nccc3ccccc23)n[nH]1 [Compound 371, 4-Chloro-2-(5-isoquinolin-1-yl-2H-[1,2,4]triazol-3-yl)-phenol]	–	–	> 19 µM
CCOc1cccc(-c2nc(-c3ccccn3)n[nH]2)c1O [Compound 355, 6-Ethoxy-2-(5-pyridin-2-yl-2H-[1,2,4]triazol-3-yl)-phenol]	–	–	> 19 µM
Cc1cccc(-c2n[nH]c(-c3cc(F)ccc3O)n2)n1 [Compound 393, 4-Fluoro-2-(5-(6-methyl-pyridin-2-yl)-2H-[1,2,4]triazol-3-yl)-phenol]	–	–	> 19 µM
CCCNC(=O)c1cc(-c2ccc(OC)cc2)nn1-c1ncccc1[N+](=O)[O-] [Compound 70, 5-(4-Methoxy-phenyl)-2-(3-nitro-pyridin-2-yl)-2H-pyrazole-3-carboxylic acid propylamide]	–	> 32 µM	–
COc1ccc(O)c(-c2nc(-c3ncccn3)n[nH]2)c1 [Compound 562, 4-Methoxy-2-(5-pyrimidin-2-yl-2H-[1,2,4]triazol-3-yl)-phenol]	> 32 µM	–	–
COc1cccc(-c2nc(-c3ncccc3Br)no2)c1O [Compound 257, 2-[3-(3-Bromo-pyridin-2-yl)-[1,2,4]oxadiazol-5-yl]-6-methoxy-phenol]	–	–	> 32 µM
Oc1ccc(Cl)cc1-c1nc(-c2ncccc2C(F)(F)F)n[nH]1 [Compound 535, 4-Chloro-2-[5-(3-trifluoromethyl-pyridin-2-yl)-2H-[1,2,4]triazol-3-yl]-phenol]	4.1 µM	–	–
Cc1cccnc1-c1noc(-c2cc(Cl)cc(Cl)c2O)n1 [Compound 278, 2,4-Dichloro-6-[3-(3-methyl-pyridin-2-yl)-[1,2,4]oxadiazol-5-yl]-phenol]	–	–	3.8 µM
Cc1cc(-c2c(O)ccc3ccccc23)nn1-c1ccccc1C(F)(F)F [Compound 5, 1-[5-Methyl-1-(2-trifluoromethyl-phenyl)-1H-pyrazol-3-yl]-naphthalen-2-ol]	–	> 19 µM	–
COc1ccccc1-c1ccnn1-c1ccccn1 [Compound 40, 2-[5-(2-Methoxy-phenyl)-pyrazol-1-yl]-pyridine]	–	> 32 µM	–
Oc1ccccc1-c1nc(-c2ncccc2Br)n[nH]1 [Compound 495, 2-[5-(3-Bromo-pyridin-2-yl)-2H-[1,2,4]triazol-3-yl]-phenol]	15 µM	–	–
CCCNC(=O)c1cc(-c2ccc3ccccc3c2)n(-c2ccccn2)n1 [Compound 72, 5-Naphthalen-2-yl-1-pyridin-2-yl-1H-pyrazole-3-carboxylic acid propylamide]	–	> 32 µM	–
COc1cccnc1-c1noc(-c2cccc(OC)c2O)n1 [Compound 246, 2-Methoxy-6-[3-(3-methoxy-pyridin-2-yl)-[1,2,4]oxadiazol-5-yl]-phenol]	–	19 µM	19 µM

Compound	EC50 [1]	EC50 [2]	EC50 [3]
Cc1cccnc1-n1ccc(-c2cc(Br)ccc2O)n1 [Compound 99, 4-Bromo-2-[1-(3-methyl-pyridin-2-yl)-1H-pyrazol-3-yl]-phenol]	–	3.6 µM	–
Cc1cc(-c2c(O)ccc3ccccc23)nn1-c1ccccn1 [Compound 28, 1-(5-Methyl-1-pyridin-2-yl-1H-pyrazol-3-yl)-naphthalen-2-ol]	–	> 19 µM	–
Cc1cccnc1-c1noc(-c2ccc([N+](=O)[O-])cc2Cl)n1 [Compound 182, 2-[5-(2-Chloro-4-nitro-phenyl)-[1,2,4]oxadiazol-3-yl]-3-methyl-pyridine]	–	12 µM	–
Fc1cccc(F)c1-c1nc(-c2cnccc2C(F)(F)F)n[nH]1 [Compound 478, 3-[5-(2,6-Difluoro-phenyl)-1H-[1,2,4]triazol-3-yl]-4-trifluoromethyl-pyridine]	> 32 µM	–	–
Oc1ccc(O)c(-c2nc(-c3nccc4ccccc34)n[nH]2)c1 [Compound 381, 4-Hydroxy-2-(5-isoquinolin-1-yl-2H-[1,2,4]triazol-3-yl)-phenol]	–	–	8.5 µM
Oc1ccc2ccccc2c1-c1nc(-c2cc(C(F)(F)F)ccc2F)no1 [Compound 136, 1-[3-(2-Fluoro-5-trifluoromethyl-phenyl)-[1,2,4]oxadiazol-5-yl]-naphthalen-2-ol]	–	> 32 µM	–
Oc1cc(OCc2ccccc2)ccc1-c1nc(-c2nccc3ccccc23)n[nH]1 [Compound 373, 5-Benzyloxy-2-(5-isoquinolin-1-yl-2H-[1,2,4]triazol-3-yl)-phenol]	–	–	> 19 µM
Cc1cccnc1-c1noc(-c2cccc3ccccc23)n1 [Compound 177, 3-Methyl-2-(5-naphthalen-1-yl-[1,2,4]oxadiazol-3-yl)-pyridine]	–	7.2 µM	–
Oc1ccc(F)cc1-c1nc(-c2ccc(C(F)(F)F)cn2)no1 [Compound 219, 4-Fluoro-2-[3-(5-trifluoromethyl-pyridin-2-yl)-[1,2,4]oxadiazol-5-yl]-phenol]	–	> 32 µM	> 32 µM
Oc1ccc(Cl)cc1-c1nc(-c2ncccc2Br)n[nH]1 [Compound 488, 2-[5-(3-Bromo-pyridin-2-yl)-2H-[1,2,4]triazol-3-yl]-4-Chloro-phenol]	2.7 µM	–	–
Oc1ccc2ccccc2c1-c1nc(-c2ccccn2)no1 [Compound 134, 1-(3-Pyridin-2-yl-[1,2,4]oxadiazol-5-yl)-naphthalen-2-ol]	–	17 µM	–
Oc1ccc2ccccc2c1-c1nnc(-c2cccs2)o1 [Compound 308, 1-(5-Thiophen-2-yl-[1,3,4]oxadiazol-2-yl)-naphthalen-2-ol]	–	–	26 µM
O=[N+]([O-])c1cccnc1-c1noc(-c2ccccc2O)n1 [Compound 161, 2-[3-(3-Nitro-pyridin-2-yl)-[1,2,4]oxadiazol-5-yl]-phenol]	–	> 19 µM	–
Oc1ccc2ccccc2c1-c1nnc(-c2ccccc2C(F)(F)F)o1 [Compound 306, 1-[5-(2-Trifluoromethyl-phenyl)-[1,3,4]oxadiazol-2-yl]-naphthalen-2-ol]	–	–	26 µM
Oc1ccc(Br)cc1-c1nc(-c2ccccn2)no1 [Compound 144, 4-Bromo-2-(3-pyridin-2-yl-[1,2,4]oxadiazol-5-yl)-phenol]	–	3.7 µM	–
Brc1cccc(-c2nc(-c3nccc4ccccc34)n[nH]2)c1 [Compound 438]	–	–	> 19 µM
COc1cccc(O)c1-c1nc(-c2ncccc2C)no1 [Compound 241, 3-Methoxy-2-[3-(3-methyl-pyridin-2-yl)-[1,2,4]oxadiazol-5-yl]-phenol]	–	> 10 µM	> 10 µM
Fc1cc(-c2nc(-c3ccccn3)n[nH]2)ccc1-c1ccccc1 [Compound 357, 2-[5-(2-Fluoro-biphenyl-4-yl)-1H-[1,2,4]triazol-3-yl]-pyridine]	–	–	7.1 µM
Cc1cc(-c2c(O)ccc3ccccc23)nn1-c1ncccc1[N+](=O)[O-] [Compound 25, 1-[5-Methyl-1-(3-nitro-pyridin-2-yl)-1H-pyrazol-3-yl]-naphthalen-2-ol]	–	> 19 µM	–
COc1ccc(O)c(-c2noc(-c3ccoc3)n2)c1 [Compound 299, 2-(5-Furan-3-yl-[1,2,4]oxadiazol-3-yl)-4-methoxy-phenol]	–	–	21.7 µM
COc1ccc(O)c(-c2ccn(Cc3ccc4ccccc4n3)n2)c1 [Compound 111, 4-Methoxy-2-(1-quinolin-2-ylmethyl-1H-pyrazol-3-yl)-phenol]	–	14 µM	–
Oc1ccccc1-c1nnc(-c2ccccc2F)o1 [Compound 319, 2-[5-(2-Fluoro-phenyl)-[1,3,4]oxadiazol-2-yl]-phenol]	–	–	18 µM
Cc1ccc(O)c(-c2nc(-c3cnccn3)n[nH]2)c1 [Compound 583, 4-Methyl-2-(5-pyrazin-2-yl-2H-[1,2,4]triazol-3-yl)-phenol]	> 32 µM	–	–
